Measured values: ChEMBL document CHEMBL5104141, “Discovery and antiviral profile of new sulfamoylbenzamide derivatives as HBV capsid assembly modulators” (Bioorg Med Chem Lett, 2022)
pIC50: −log10 of the molar value. ≈ marks a conversion by molar mass, not a printed value.

Assays:
[1] = Metabolic stability of the compound in mouse hepatocytes assessed as parent compound remaining measured after 4 hrs; type: ADME, cell-based, Hepatocyte; conditions: read-out: Stability
[2] = Half life in C57BL/6 mouse at 2 mg/kg, iv; type: ADME, organism-based; conditions: in vivo
[3] = Mutagenicity in Escherichia coli upto 1250 ug/plate in absence of S9 fraction by Ames test; type: toxicity; conditions: dose < 1250 µg
[4] = Cytotoxicity against human HePAD38 cells up to 10 uM by CellTiter-Blue assay; type: toxicity, cell-based; conditions: hepad38, 10 µM
Cytochrome P450 2D6 = Cytochrome P450 2D6 (Homo sapiens, UniProt P10635); assay: Inhibition of CYP2D6 (unknown origin); type: ADME
Chain of Cytochrome P450 2D6 (P10635 whole entry): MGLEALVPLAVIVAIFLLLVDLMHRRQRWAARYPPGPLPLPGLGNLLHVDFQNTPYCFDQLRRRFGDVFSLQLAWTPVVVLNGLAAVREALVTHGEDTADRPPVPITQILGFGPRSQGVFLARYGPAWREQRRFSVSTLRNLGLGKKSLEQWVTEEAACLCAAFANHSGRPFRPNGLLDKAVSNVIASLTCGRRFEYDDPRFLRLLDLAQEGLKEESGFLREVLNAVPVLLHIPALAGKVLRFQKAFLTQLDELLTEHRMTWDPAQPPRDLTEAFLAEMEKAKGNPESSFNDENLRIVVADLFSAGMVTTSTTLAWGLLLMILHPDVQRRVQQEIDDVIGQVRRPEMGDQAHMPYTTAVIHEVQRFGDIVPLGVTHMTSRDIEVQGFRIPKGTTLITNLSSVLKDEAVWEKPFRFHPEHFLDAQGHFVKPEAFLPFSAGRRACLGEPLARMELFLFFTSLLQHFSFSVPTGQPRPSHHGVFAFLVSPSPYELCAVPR

[5] = biological target: Voltage-gated inwardly rectifying potassium channel KCNH2 (Homo sapiens, UniProt Q12809); assay: Inhibition of hERG; type: toxicity
Chain of Voltage-gated inwardly rectifying potassium channel KCNH2 (Q12809 whole entry): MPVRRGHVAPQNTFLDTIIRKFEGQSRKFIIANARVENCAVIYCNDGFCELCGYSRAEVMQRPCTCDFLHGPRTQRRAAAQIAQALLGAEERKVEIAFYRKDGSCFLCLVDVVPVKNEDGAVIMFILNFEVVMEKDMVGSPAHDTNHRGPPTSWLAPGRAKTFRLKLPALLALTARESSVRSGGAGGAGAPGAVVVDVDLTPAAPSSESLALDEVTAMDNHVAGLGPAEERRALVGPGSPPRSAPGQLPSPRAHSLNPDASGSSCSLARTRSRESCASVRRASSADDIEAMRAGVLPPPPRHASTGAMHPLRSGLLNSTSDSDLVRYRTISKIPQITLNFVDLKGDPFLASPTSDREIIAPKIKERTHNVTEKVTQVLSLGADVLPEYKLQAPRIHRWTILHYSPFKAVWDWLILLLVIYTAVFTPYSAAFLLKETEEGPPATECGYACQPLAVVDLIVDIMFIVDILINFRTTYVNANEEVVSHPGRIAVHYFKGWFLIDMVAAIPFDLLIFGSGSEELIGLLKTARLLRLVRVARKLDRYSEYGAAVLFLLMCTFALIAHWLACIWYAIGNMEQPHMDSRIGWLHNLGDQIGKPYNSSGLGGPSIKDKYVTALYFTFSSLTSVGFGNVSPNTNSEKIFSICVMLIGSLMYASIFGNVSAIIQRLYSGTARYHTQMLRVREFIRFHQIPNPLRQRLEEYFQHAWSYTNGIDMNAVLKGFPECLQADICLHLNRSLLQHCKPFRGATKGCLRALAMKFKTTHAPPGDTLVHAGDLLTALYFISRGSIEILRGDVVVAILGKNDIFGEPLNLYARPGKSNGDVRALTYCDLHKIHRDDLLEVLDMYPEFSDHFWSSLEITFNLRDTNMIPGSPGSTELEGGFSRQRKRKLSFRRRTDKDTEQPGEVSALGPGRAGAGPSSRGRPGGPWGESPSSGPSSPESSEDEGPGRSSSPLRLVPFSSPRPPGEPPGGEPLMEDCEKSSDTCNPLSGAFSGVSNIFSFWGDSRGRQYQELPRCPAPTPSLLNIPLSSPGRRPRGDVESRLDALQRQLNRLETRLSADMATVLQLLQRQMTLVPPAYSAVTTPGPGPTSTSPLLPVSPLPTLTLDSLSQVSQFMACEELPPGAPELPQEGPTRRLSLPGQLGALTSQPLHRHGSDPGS

[6] = AUC in C57BL/6 mouse at 5 mg/kg, po and 2 mg/kg, iv; type: ADME, organism-based; design: dose 5 mg/kg, route po; conditions: in vivo
[7] = Ratio of EC50 for antiviral activity against HBV harboring core protein I105T mutant to EC50 for antiviral activity against HBV harboring wild type core protein; type: functional, Hepatitis B virus
[8] = Kinetic solubility of the compound at pH 7.4; type: physicochemical; conditions: buffer, read-out: Kinetic_solubility
[9] = Mutagenicity in Escherichia coli upto 1250 ug/plate in presence of S9 fraction by Ames test; type: toxicity, subcellular; conditions: dose < 1250 µg
[10] = biological target: Core antigen (Hepatitis B virus) (UniProt Q03732); assay: Modulation of capsid assembly in HBV infected in human HePAD38 cells assessed as inhibition of viral DNA replication measured after 96 hrs by qPCR analysis; type: cell-based; conditions: filed as modulator
Chain of Core antigen (Hepatitis B virus) (Q03732 as listed by the source): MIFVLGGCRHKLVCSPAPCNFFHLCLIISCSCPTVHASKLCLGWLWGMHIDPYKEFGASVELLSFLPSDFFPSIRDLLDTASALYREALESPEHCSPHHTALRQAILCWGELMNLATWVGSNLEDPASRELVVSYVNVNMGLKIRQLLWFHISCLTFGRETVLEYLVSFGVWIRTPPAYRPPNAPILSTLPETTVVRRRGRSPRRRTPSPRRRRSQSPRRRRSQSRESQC

Cytochrome P450 3A4 = Cytochrome P450 3A4 (Homo sapiens, UniProt P08684); assay: Inhibition of CYP3A4 (unknown origin); type: ADME
Chain of Cytochrome P450 3A4 (P08684 whole entry): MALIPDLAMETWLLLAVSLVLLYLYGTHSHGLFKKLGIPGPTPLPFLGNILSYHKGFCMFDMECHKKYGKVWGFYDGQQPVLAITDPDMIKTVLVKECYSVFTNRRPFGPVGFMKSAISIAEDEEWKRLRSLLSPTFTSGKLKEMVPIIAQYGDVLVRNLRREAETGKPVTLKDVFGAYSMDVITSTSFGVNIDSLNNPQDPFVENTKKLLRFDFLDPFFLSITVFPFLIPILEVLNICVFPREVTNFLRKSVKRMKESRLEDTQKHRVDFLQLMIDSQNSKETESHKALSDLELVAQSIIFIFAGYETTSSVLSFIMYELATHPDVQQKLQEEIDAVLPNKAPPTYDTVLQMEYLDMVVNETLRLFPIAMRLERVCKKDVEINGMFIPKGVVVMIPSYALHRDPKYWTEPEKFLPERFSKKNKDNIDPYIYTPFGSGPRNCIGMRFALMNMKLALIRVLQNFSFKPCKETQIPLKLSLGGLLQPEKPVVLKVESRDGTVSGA

[11] = Metabolic stability of the compound in human hepatocytes assessed as parent compound remaining measured after 4 hrs; type: ADME, cell-based, Hepatocyte; conditions: read-out: Stability
Hepatitis B virus [12] = assay: Antiviral activity against HBV in HBV transgenic mouse assessed as inhibition of viral replication by measuring log reduction of serum HBV DNA content at 75 mg/kg, po BID for 3 days; type: functional; conditions: time 3 day
Hepatitis B virus [13] = assay: Antiviral activity against HBV in HBV transgenic mouse assessed as inhibition of viral replication by measuring reduction of serum HBV DNA content administered orally BID for 3 days; type: functional, organism-based; conditions: dose 25-75 mg/kg, route po, time 3.0 day, DDE = dose-dependent effect
[14] = Oral bioavailability in C57BL/6 mouse at 5 mg/kg; type: ADME, organism-based; conditions: in vivo
[15] = Ratio of drug concentration in liver to blood in C57BL/6 mouse at 5 mg/kg, po measured after 4 hrs; type: ADME, organism-based
[16] = Plasma clearance in C57BL/6 mouse at 2 mg/kg, iv; type: ADME, organism-based
HepG2 2.2.15 = assay: Cytotoxicity against human HepG2.2.15 cells up to 10 uM by CellTiter-Blue assay; type: toxicity, cell-based; conditions: hepg2 2.2.15, 10 µM
[17] = Ratio of EC50 for antiviral activity against HBV harboring core protein Y118F mutant to EC50 for antiviral activity against HBV harboring wild type core protein; type: functional, Hepatitis B virus
[18] = Cmax in C57BL/6 mouse at 5 mg/kg, po; type: ADME, organism-based; design: dose 5 mg/kg, route po; conditions: in vivo
[19] = Mutagenicity in Salmonella typhimurium upto 1250 ug/plate in presence of S9 fraction by Ames test; type: toxicity, subcellular; conditions: salmonella enterica subsp. enterica serovar typhimurium, dose < 1250 µg
Hepatitis B virus [20] = assay: Antiviral activity against HBV in HBV transgenic mouse assessed as inhibition of viral replication by measuring log reduction of serum HBV DNA content at 25 mg/kg, po BID for 3 days; type: functional; conditions: time 3 day
[21] = Mutagenicity in Salmonella typhimurium upto 1250 ug/plate in absence of S9 fraction by Ames test; type: toxicity; conditions: salmonella enterica subsp. enterica serovar typhimurium, dose < 1250 µg
[22] = Ratio of EC50 for antiviral activity against HBV harboring core protein V124G mutant to EC50 for antiviral activity against HBV harboring wild type core protein; type: functional, Hepatitis B virus
[23] = Ratio of EC50 for antiviral activity against HBV harboring core protein T33P mutant to EC50 for antiviral activity against HBV harboring wild type core protein; type: functional, Hepatitis B virus
[24] = Volume of distribution in C57BL/6 mouse at 2 mg/kg, iv; type: ADME, organism-based; conditions: in vivo
[25] = Ratio of EC50 for antiviral activity against HBV harboring core protein F23Y mutant to EC50 for antiviral activity against HBV harboring wild type core protein; type: functional, Hepatitis B virus
[26] = Ratio of EC50 for antiviral activity against HBV harboring core protein L37Q mutant to EC50 for antiviral activity against HBV harboring wild type core protein; type: functional, Hepatitis B virus
[27] = Ratio of EC50 for antiviral activity against HBV harboring core protein F110I mutant to EC50 for antiviral activity against HBV harboring wild type core protein; type: functional, Hepatitis B virus
Hepatitis B virus [28] = assay: Antiviral activity against HBV in HBV transgenic mouse assessed as inhibition of viral replication by measuring fold reduction of serum HBV DNA content at 75 mg/kg, po BID for 3 days relative to control; type: functional; conditions: time 3 day
Hepatitis B virus [29] = assay: Antiviral activity against HBV in HBV transgenic mouse assessed as inhibition of viral replication by measuring fold reduction of serum HBV DNA content at 25 mg/kg, po BID for 3 days relative to control; type: functional; conditions: time 3 day
[30] = Ratio of EC50 for antiviral activity against HBV harboring core protein T128I mutant to EC50 for antiviral activity against HBV harboring wild type core protein; type: functional, Hepatitis B virus
[31] = Toxicity in HBV transgenic mouse assessed as liver damage at 25 to 75 mg/kg, po BID for 3 days; type: organism-based; conditions: in vivo, 72 h, dose 25-75 mg/kg, time 3 day
[32] = biological target: Core antigen (Hepatitis B virus) (UniProt Q03732); assay: Modulation of capsid assembly in HBV infected in human HePAD38 cells assessed as fold shift in inhibition of viral DNA replication in presence of 40% normal human serum measured after 96 hrs by qPCR analysis; type: cell-based; conditions: filed as modulator
Hepatitis B virus [33] = assay: Antiviral activity against HBV in HBV transgenic mouse assessed as inhibition of viral replication by measuring reduction of serum HBV DNA content at 25 to 75 mg/kg, po BID for 3 days; type: functional, organism-based; conditions: dose 25-75 mg/kg, time 3.0 day, TDE = time-dependent effect
[34] = Ratio of EC50 for antiviral activity against HBV harboring core protein T33N mutant to EC50 for antiviral activity against HBV harboring wild type core protein; type: functional, Hepatitis B virus
Cytochrome P450 1A2 = biological target: T1, Cytochrome P450 1A2 (Homo sapiens, UniProt P05177); assay: Inhibition of CYP1A2 (unknown origin); type: ADME
T1 sequence (P05177 whole entry): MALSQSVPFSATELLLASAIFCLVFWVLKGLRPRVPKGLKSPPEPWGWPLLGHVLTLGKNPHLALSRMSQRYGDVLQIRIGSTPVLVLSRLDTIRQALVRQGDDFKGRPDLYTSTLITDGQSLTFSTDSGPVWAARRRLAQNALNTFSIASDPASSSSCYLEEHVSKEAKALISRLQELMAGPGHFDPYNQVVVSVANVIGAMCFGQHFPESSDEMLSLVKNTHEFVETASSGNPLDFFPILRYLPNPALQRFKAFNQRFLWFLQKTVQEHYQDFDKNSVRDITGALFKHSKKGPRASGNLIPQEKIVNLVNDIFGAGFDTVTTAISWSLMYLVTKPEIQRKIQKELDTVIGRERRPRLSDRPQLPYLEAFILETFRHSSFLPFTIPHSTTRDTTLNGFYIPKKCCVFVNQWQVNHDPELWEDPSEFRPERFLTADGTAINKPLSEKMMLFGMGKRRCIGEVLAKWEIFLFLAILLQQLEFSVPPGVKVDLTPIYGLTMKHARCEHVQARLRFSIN

## Cc1cc(N)c(S(N)(=O)=O)cc1C(=O)Nc1cc(F)c(F)c(F)c1
[1]
  remaining at 4 h: 100%
[2]
  half-life: 3.2 h
[3]
  Activity: Non-Toxic
[4]
  Activity: Non-Toxic
Cytochrome P450 2D6
  pIC50: < 4.82
[5]
  pIC50: < 4.52
[6]
  AUC: 33 µM·h
[7]
  Ratio EC50: 3.1
[8]
  solubility kinetic: 29.2 µM (≈ 10.5 µg/mL)
[9]
  Activity: Non-Toxic
[10]
  EC90: 0.26 µM
Cytochrome P450 3A4
  pIC50: < 4.52
[11]
  remaining at 4 h: 90%
Hepatitis B virus [12]
  log(activity): 1.68
Hepatitis B virus [13]
  Activity: Dde
[14]
  bioavailability: 114%
[15]
  Kp at 4 h: 10
[16]
  clearance: 8 mL/min/kg
HepG2 2.2.15
  Activity: Non-Toxic
[17]
  Ratio EC50: 3.1
[18]
  Cmax: 3.6 µM
[19]
  Activity: Non-Toxic
Hepatitis B virus [20]
  log(activity): 1.18
[21]
  Activity: Non-Toxic
[22]
  Ratio EC50: 3.1
[23]
  Ratio EC50: 3.1
[24]
  Vd: 2.3 L/kg
[25]
  Ratio EC50: 3.1
[26]
  Ratio EC50: 3.1
[27]
  Ratio EC50: 3.1
Hepatitis B virus [28]
  fold change (FC): 48.3
Hepatitis B virus [29]
  fold change (FC): 15.2
[30]
  Ratio EC50: 3.1
[31]
  Activity: Non-Toxic
[32]
  fold change (FC): 16.9
Hepatitis B virus [33]
  Activity: Tde
[34]
  Ratio EC50: 3.1
Cytochrome P450 1A2
  pIC50: 4.91

## Nc1ccc(C(=O)Nc2ccc(F)c(Cl)c2)cc1S(N)(=O)=O
[10]
  EC90: 0.36 µM

## CNc1ccc(C(=O)Nc2cc(F)c(F)c(F)c2)cc1S(N)(=O)=O
[10]
  EC90: 20.9 µM

## Cc1cc(N)c(S(N)(=O)=O)cc1C(=O)Nc1ccc(F)c(C(F)F)c1
[10]
  EC90: 0.66 µM

## Nc1cc(F)c(C(=O)Nc2cc(F)c(F)c(F)c2)cc1S(N)(=O)=O
[10]
  EC90: 1.09 µM

## Cc1cc(N)c(S(N)(=O)=O)cc1C(=O)Nc1ccc(F)c(C(F)(F)F)c1
[10]
  EC90: 2.63 µM

## NS(=O)(=O)c1cc(C(=O)Nc2cc(F)c(F)c(F)c2)ccc1F
[10]
  EC90: 8.13 µM

## Nc1cc(Br)c(C(=O)Nc2cc(F)c(F)c(F)c2)cc1S(N)(=O)=O
[10]
  EC90: 2.78 µM

## Cc1cc(NC(=O)c2cc(S(N)(=O)=O)c(N)cc2C)ccc1F
[10]
  EC90: 0.39 µM

## Nc1ccc(C(=O)Nc2ccc(F)c(C(F)F)c2)cc1S(N)(=O)=O
[10]
  EC90: 0.48 µM

## Cc1cc(NC(=O)c2ccc(N)c(S(N)(=O)=O)c2)ccc1F
[10]
  EC90: 0.7 µM

## Nc1ccc(C(=O)Nc2ccc(F)c(C(F)(F)F)c2)cc1S(N)(=O)=O
[10]
  EC90: 3.65 µM

## Cc1cc(C(=O)Nc2cc(F)c(F)c(F)c2)cc(S(N)(=O)=O)c1N
[10]
  EC90: 1.54 µM

## Cc1cc(N)c(S(N)(=O)=O)cc1C(=O)Nc1ccc(F)c(C#N)c1
[10]
  EC90: 1.21 µM

## Nc1cc(Cl)c(C(=O)Nc2cc(F)c(F)c(F)c2)cc1S(N)(=O)=O
[10]
  EC90: 1.24 µM

## Cc1cc(N)c(S(N)(=O)=O)cc1C(=O)Nc1ccc(F)c(Cl)c1
[10]
  EC90: 0.39 µM

## Nc1ccc(C(=O)Nc2cc(F)c(F)c(F)c2)cc1S(N)(=O)=O
[10]
  EC90: 0.49 µM

## O=C(Nc1cc(F)c(F)c(F)c1)c1ccc(F)c(S(=O)(=O)N2CCC(O)CC2)c1
[10]
  EC90: 1.13 µM

## N#Cc1cc(NC(=O)c2ccc(N)c(S(N)(=O)=O)c2)ccc1F
[10]
  EC90: 2.53 µM
